Values of other authors as cited in patent US4196122A, “Analgesic polypeptide” (American Home Products Corporation, priority 1977, dated 1980).

Key:
opiate receptor = conditions: brain homogenates
rats = conditions: injection in the brain ventricle in rats; fully reversible by naloxone

Substance	inhibition of stereospecific receptor binding of 3H-naloxone (opiate receptor)	analgesia (rats)
H-Tyr-Gly-Gly-Phe-Met-OH [methionine-enkephalin]	inhibit the stereospecific receptor binding	induce a profound analgesia
H-Tyr-Gly-Gly-Phe-Leu-OH [leucine-enkephalin]	inhibit the stereospecific receptor binding	induce a profound analgesia
